Data reported in EP1309253B1, “METHODS AND DEVICES FOR REMOVING NU[…] FROM TOBACCO AND TOBACCO SMOKE” (Cerami Consulting Corporation, priority 2000, dated 2002).

Conditions: 250 mg portions of each compound as filter; smoke from one cigarette drawn through 3 mls of distilled water; read at 405 nm; compared with control cigarette
Method: The treated fibers were then dried overnight at 37 C. The smoke from one cigarette was drawn through the filter material and then through 3 mls of distilled water using a water-pipe smoking device which was constructed from a 25 ml glass Erlenmeyer flask attached to a vacuum source with an air flow rate of approximately 35 ml/min. Three 100 microliter aliquots were removed from each flask, placed into ELISA plate wells and read in an ELISA plate reader at 405 nm. The percentage or tar removed is based on a comparison between the cigarette comprising the filter containing the test agent and an appropriate control cigarette.
The treated fibers were dried at 37 C overnight and then made into a tobacco cigarette using a tube cigarette maker. The smoke from 1 of each type of filter cigarette was then drawn through 3 mls of distilled water using a water-pipe smoking device which was constructed from a small (25 ml) glass Erlenmeyer flask attached to a vacuum source with an air flow rate of approximately 35 ml/min. Three 100 microliter aliquots were removed from each flask, placed into ELISA plated wells and read in an ELISA plate reader at 405 nm.

SMILES	% TAR REMOVAL
O=C1c2ccccc2C(=O)C1(O)O [Ninhydrin]	83%
C[C@H](NC(=O)OC(C)(C)C)C(=O)ON1C(=O)CCC1=O [N-α-t-BOC-L-alanine-N-hydroxysuccinimide ester]	25%
O=C1NC(=O)C(=O)C(=O)N1 [Alloxan]	96.9%
O=Cc1cccc(OCCOc2cccc(C=O)c2)c1 [Ethylenedioxybis(3-benzaldehyde)]	19.3%
CC12CCC(C(=O)C1=O)C2(C)C (stereo not shown) [Camphorquinone]	53.9%
O=CC(=O)c1ccccc1 [Phenylglyoxal]	53%
O=C(C=CC=Cc1ccccc1)C=CC=Cc1ccccc1 [Dicinnamalacetone]	98.1%
O=C(/C=C/C(=O)c1ccccc1)c1ccccc1 [Fumarophenone]	87.5%
CC1(C)CC(=O)CC(=O)C1 [(5,5-dimethyl-1,3-cyclohexanedione, 5,5-dimethyl-1,3-cyclohexanedione]	26%
CC(C)(C)OC(=O)NCCCCCC(=O)ON1C(=O)CCC1=O [BOC-ε-aminocaproic acid-N-hydroxysuccinimide ester]	74%
O=C1c2ccccc2C(=O)C1(O)C1(O)C(=O)c2ccccc2C1=O [Hydrindantin]	95%
O=C1C=C2CC3(O)COc4c(ccc(O)c4O)C3=C2C=C1O (stereo not shown) [Hematein, 6a,7-dihydro-3,4,6a,10 tetrahydroxyben[b]indeno[1,2-d]pyran-9(6H)-one]	48.7%
O=Cc1ccccc1C=O [O-phthaldialdehyde]	84%
